Measurements from patent US20030158251A1, “Methods, pharmaceutical compositions and articles of manufacture for treating disorders associated with abnormal cell proliferation and apoptosis” (priority 2002, published 2003).
Where a SMILES comes first, the peptide text is derived from it. The star is where a group is joined. Cbz = O=C(OCc1ccccc1)*

What was measured:
[1] = test system: p53; test: Proteasome inhibitor block of dicoumarol-induced p53 elimination in HCT116 cells; assay type: cell-based, human; conditions: HCT116, 4 hrs with dicoumarol; 100 micromolar MG 132 or 40 micromolar lactacystin
Procedure: FIGS. 2a-b illustrate that proteasomal degradation is responsible for the dicoumarol-induced p53 decrease in cells. […] Immunoblots were carried out as in FIG. 1.
Cell extracts were prepared by lysis of PBS-washed cells in RIPA lysis buffer [150 mM NaCl, 1% NP-40 (vol/vol), 0.5% AB-deoxycholate (DOC vol/vol), 0.1% SDS (vol/vol), 50 mM Tris-Hcl pH 8, 1 mM dithiotireitol (DTT) and 1 micogram/ml each of leupeptin, aprotinin, pepstatin (Sigma cocktail)]. The insoluble pellet was discarded and protein concentration was determined using Bradford reagent (BioRad). Equal amounts of protein were mixed with Laemmli sample buffer (4% SDS, 20% glycerol, 10% 2-mercaptoeftanol and 0.125M Tris-Hcl), heated at 95° C. for 5 min and loaded on an 8% polyacrylamide-SDS gel. Following electophoresis, proteins were transferred to cellulose nitrate 0.45 micrometer membranes (Schleicher & Schuell, Dassel, Germany). Loading equivalence and transfer efficiency were monitored by Ponceau S staining and the membranes were then incubated with appropriate antibodies to proteins of interest followed by horse-radish peroxidase conjugated anti-IgG antibodies. […]
It is well documented that p53 accumulation is determined by the rate of its proteasomal degradation (reviewed in refs. 1,2).

[2] = test system: p53; test: Immunoblot of p53 level in M1-t-p53 cells; assay type: cell-based, mouse
Procedure: Immunoblot analysis was carried out using Pab 240 monoclonal anti p53 antibody. The blots were then stripped and re-probed with anti I-kappa-B and anti beta-tubulin antibody.
Immunoblot analysis was carried out using Pab 240 monoclonal anti p53 antibody and hamster anti mouse Bcl-2. FIG. 11a is an immunoblot of cell extracts from M1-t-p53 myeloid leukemic cells cultured for 6h at 32° C. or 37° C. without or with different concentrations of radicicol. Antibodies are indicated at left. FIG. 11b is an immunoblot of cell extracts from cells cultured at 32° C. for 6 or 2 h without (−) or with (+) 1 μM radicicol. Cells were also preincubated for 4 h at 32° C. and then cultured with 1 μM radicicol or 1 μM geldanamycin (geldan.) for 2 h (2 h*).
(§1) The cell lines used were: HCT116 human colon carcinoma cells, HCT116 HA-NQO1 over-expressing cells (45), p53 null HCT116 cells (Bunz, F., Dutiaux, A., Lengauer, C., Waldman, T., Zhou, S., Brown, J. P., Sedivy, J. M., Kinzler, K. W. & Vogelstein, B. (1998) Science 282, 1497-1501.), COS 1 monkey kidney cells, normal thymocytes obtained from 2.5 month old Balb/C mice and M1-t-p53 mouse myeloid leukemic cells that express a temperature-sensitive mutant p53 [Val-135] protein (Yonish-Rouach, E., Resnitzky, D., Lotem, J., Sachs, L., Kimchi, A. & Oren, M. (1991) Nature 352, 345-347).
(§2) The p53 in M1-t-p53 cells behaves like a tumor-suppressing wild-type p53 at 32° C. and like a mutant p53 at 37° C. (24). HCT116 and COS 1 cells were grown in Dulbecco's modified Eagle's medium (DMEM) supplemented with 10% fetal bovine serum (FBS), […] penicillin, and 100 µg/ml streptomycin and cultured at 37° C. in a humidified incubator with 5.6% C02. Normal thymocytes and M1-t-p53 cells were grown in DMEM supplemented with 10% heat inactivated (56° C., 30 min) horse serum and cultured at 37° C. in an incubator with 10% […].
(§3) Cell extracts were prepared by lysis of PBS-washed cells in RIPA lysis buffer [150 mM NaCl, 1% NP-40 (vol/vol), 0.5% AB-deoxycholate (DOC vol/vol), 0.1% SDS (vol/vol), 50 mM Tris-Hcl pH 8, 1 mM dithiotireitol (DTT) and 1 micogram/ml each of leupeptin, aprotinin, pepstatin (Sigma cocktail)]. The insoluble pellet was discarded and protein concentration was determined using Bradford reagent (BioRad). Equal amounts of protein were mixed with Laemmli sample buffer (4% SDS, 20% glycerol, 10% 2-mercaptoeftanol and 0.125M Tris-Hcl), heated at 95° C. for 5 min and loaded on an 8% polyacrylamide-SDS gel. Following electophoresis, proteins were transferred to cellulose nitrate 0.45 micrometer membranes (Schleicher & Schuell, Dassel, Germany). Loading equivalence and transfer efficiency were monitored by Ponceau S staining and the membranes were then incubated with appropriate antibodies to proteins of interest followed by horse-radish peroxidase conjugated anti-IgG antibodies. Signals were developed using Super Signal (Pierce Poxkford, USA) at 20° C. for 5 min and the membranes were then exposed to X-ray film (Fuji Tokyo, Japan) for an appropriate time and developed. Membranes were stripped using 50 mM citric acid before using a different primary antibody. The antibodies used were; Monoclonal anti human p53 (Pab 1801) (26), monoclonal anti mouse and human p53 (Pab240), monoclonal anti I-kappa-B (Santa Cruz Biotechnology, Santa Cruz, Calif., USA), monoclonal anti beta-tubulin and anti HA (Sigma Chemical, St. Louis, Mo.).
(§4) These cells are viable and proliferate at 37° C. when the p53 behaves like a mutant form, but undergo apoptosis at 32° C. when the p53 behaves like wild-type (3).
Because interleukin 6 (IL-6) and the calcium mobilizing compound thapsigargin (TG) are known to be efficient anti-apoptotic agents in M1-t-p53 cells (3, 31), the effect of these compounds on p53 stability was also investigated. […] (FIG. 6a).

[3] = test system: p53; test: Immunoblot of p53 level in gamma irradiated normal thymocytes; assay type: cell-based, mouse; conditions: for wild-type p53 accumulation: γ-irradiated normal thymocytes, 2 h, 200 μM dicoumarol, 5 μM radicicol or 5 μM geldanamycin
Procedure: Cell extracts were prepared after 2 h and apoptosis was determined after 5 h.

[4] = test system: p53; test: Immunoblot of p53 accumulation in 7-M12 myeloid leukemic cells; assay type: cell-based; conditions: 7-M12 cells; for accumulation of p53 following γ-irradiation or doxorubicin treatment: 2 h, 100 μM dicoumarol or 5 μM radicicol
Procedure: Immunoblot analysis was carried out using PAb 240 monoclonal anti p53 antibody and rabbit anti IκB FIG. 13a is an immunoblot of extracts from 7-M12 cells which were either not treated (none), γ-irradiated at 0.4 Gy or treated with 2.1 μM doxorubicin (Dox.). […] Cell extracts were prepared after 2 h and apoptosis was determined after 5 h.

[5] = test system: normal thymocytes; test: Apoptosis in gamma irradiated normal thymocytes; assay type: cell-based, mouse
Description: as §1
(§5) Apoptosis in normal thymocytes was induced by gamma irradiation 4 Gy (Co^60 source 0.63 Gy/min) and in M1-t-p53 cells by culture at 32° C. The percentage of apoptotic thymocytes was determined on May-Grünwald-Giemsa-stained cytospin preparations by counting 400 cells 5 hrs post gamma-irradiation. Apoptotic cells were scored by their smaller size, condensed chromatin, and fragmented nuclei compared with non-apoptotic cells. Analysis of DNA fragmentation during apoptosis in thymocytes was performed by DNA agarose gel electophoresis as described (27). Apoptotic M1-t-p53 cells undergo secondary changes including uptake of trypan-blue (28). The percent of viable cells (non apoptotic and not stained with trypan-blue) was determined by counting 400 cells in a hemocytometer after 23 hrs at 32° C.

[6] = test system: p53; test: Immunoblot of p53 level in HCT116 cells treated with dicoumarol; assay type: cell-based, human; conditions: for p53 level: HCT116 cells, 400 micromolar dicoumarol; for accumulation of p53 upon γ-irradiation: HCT116 γ-irradiated at 6 Gy, 4 hrs
Procedure: Protein levels of each lane probed were calibrated by probing with monoclonal anti beta-tubulin antibody. Dic—Dicoumarol.
as §3
Blots were stripped and re-probed with monoclonal anti beta-tubulin antibody as a control for equal protein loading in each lane.
Since it is known that irradiation cause accumulation of p53 within cells, an additional event was conducted on irradiated cells. […] As expected, p53 accumulated upon γ-irradiation (compare FIG. 1b lanes 1 and 2).

[7] = test system: M1-t-p53 myeloid leukemic cells; test: cells
Procedure: Cell viability was determined 23 h after culture at 32° C.
as §1, §2, §5, §4

[8] = test system: p53; test: Immunoblot of p53 level in COS 1 cells expressing SV40 large T antigen; assay type: cell-based, monkey; conditions: COS 1 cells gamma irradiated at 6 Gy, up to 400 micromolar, 4 hrs
Procedure: Cell extracts were prepared by lysis of PBS-washed cells in RIPA lysis buffer [150 mM NaCl, 1% NP-40 (vol/vol), 0.5% AB-deoxycholate (DOC vol/vol), 0.1% SDS (vol/vol), 50 mM Tris-Hcl pH 8, 1 mM dithiotireitol (DTT) and 1 micogram/ml each of leupeptin, aprotinin, pepstatin (Sigma cocktail)]. The insoluble pellet was discarded and protein concentration was determined using Bradford reagent (BioRad). Equal amounts of protein were mixed with Laemmli sample buffer (4% SDS, 20% glycerol, 10% 2-mercaptoeftanol and 0.125M Tris-Hcl), heated at 95° C. for 5 min and loaded on an 8% polyacrylamide-SDS gel. Following electophoresis, proteins were transferred to cellulose nitrate 0.45 micrometer membranes (Schleicher & Schuell, Dassel, Germany). Loading equivalence and transfer efficiency were monitored by Ponceau S staining and the membranes were then incubated with appropriate antibodies to proteins of interest followed by horse-radish peroxidase conjugated anti-IgG antibodies. Signals were developed using Super Signal (Pierce Poxkford, USA) at 20° C. for 5 min and the membranes were then exposed to X-ray film (Fuji Tokyo, Japan) for an appropriate time and developed. Membranes were stripped using 50 mM citric acid before using a different primary antibody. […]

[9] = test system: p53; test: Dicoumarol-induced p53 degradation in transfected p53 null HCT116 cells; assay type: cell-based, human; conditions: 5 h
Procedure: Antibodies used to probe and reprobe the blots are indicated at the left. Stripping and reprobing was as for FIGS. 8 and 9.
Transfection: Cells were seeded at 60% confluence in 6-well plates 16 h before transfection with the desired plasmids. Transfections were carried out by the calcium phosphate method followed by a 10% glycerol shock for 30 seconds, 7 h post transfection. The exact amount of plasmid used in each experiment is indicated in the corresponding figure legend. Whenever needed an empty vector was used to maintain a constant amount of 5 μg total DNA in each transfection mix. Cell extracts were generally prepared 24 h after transfection.
as §3, with “The antibodies used were; Monoclonal anti human p53 (Pab 1801) (26), monoclonal anti mouse and human p53 (Pab240), monoclonal anti I-kappa-B (Santa Cruz Biotechnology, Santa Cruz, Calif., USA), monoclonal anti beta-tubulin and anti HA (Sigma Chemical, St. Louis, Mo.).” left out

[10] = test system: thymocytes; test: Dexamethasone induced apoptosis in thymocytes; assay type: cell-based, mouse; conditions: for apoptotic cells: dexamethasone treated thymocytes, from 42±3% without inhibitor
Description: Accumulation of p53 in γ-irradiated or doxorubicin treated 7-M12 myeloid leukemic cells (28) induces expression of mdm2 and waf-1.

[11] = 32° C., 6 hrs, 10 nanomolar TG or 50 ng/ml IL-6
[12] = Mus musculus, 23 h, read-out: cell viability

Molecule: CC(C)C[C@@H](C=O)NC(=O)[C@H](CC(C)C)NC(=O)[C@H](CC(C)C)NC(=O)OCc1ccccc1 [MG132] (Cbz-Leu-Leu-Leu-aldehyde)
- block of dicoumarol-induced p53 elimination [1]: completely blocked

Molecule: C/C=C(/C)C(=O)O[C@H]1C(C)=C2[C@H]([C@@H]1OC(=O)CCCCCCC)[C@@](C)(OC(C)=O)C[C@H](OC(=O)CCC)[C@@]1(O)[C@H]2OC(=O)[C@@]1(C)O [TG, thapsigargin]
- p53 level [2, 11]: did not cause a reduction in p53 level

Molecule: O=c1oc2ccccc2c(O)c1Cc1c(O)c2ccccc2oc1=O [dicoumarol, 13-3′-methylene bis (4-hydroxycoumarin)]
- level of p53 ([3]; 4 Gy gamma irradiated thymocytes, 100 and 200 micromolar, 5 hrs): decrease in the level of p53
- wild-type p53 accumulation [3]: completely inhibited
- accumulation of p53 following γ-irradiation or doxorubicin treatment [4]: inhibited
- induction of apoptosis (morphology and DNA fragmentation) ([5]; 4 Gy gamma irradiated thymocytes, 100 and 200 micromolar, 5 hrs, dose dependent): inhibited induction of apoptosis
- inhibition of apoptosis ([5]; 4 Gy gamma irradiated thymocytes, 200 micromolar): Complete inhibition of apoptosis
- induction of apoptosis ([5]; γ-irradiated normal thymocytes, 5 h, 200 μM dicoumarol or 5 μM hsp90 inhibitor): completely inhibited
- level of beta-tubulin ([6]; HCT116, same conditions as the p53 blots (specificity control)): unaffected
- p53 level ([6]; 90 min): significant reduction in p53 level
- p53 level ([6]; 180 min): almost complete elimination of p53
- accumulation of p53 upon γ-irradiation ([6]; 200 micromolar): reduced
- accumulation of p53 upon γ-irradiation ([6]; 400 micromolar): further reduced
- cell survival compared to cells without dicoumarol ([7]; M1-t-p53 cells, 32° C., 23 hrs, 75 or 100 micromolar): increase in cell survival
- viability at 75 µM ([7]; Mus musculus, read-out: cell viability): 52 ± 4%
- p53 level [8]: not reduced
- dicoumarol induced p53 degradation ([9]; p53 null HCT116 co-transfected with p53 and LT, 300 μM): resistant to dicoumarol induced p53 degradation
- dicoumarol induced p53 degradation ([9]; p53 null HCT116 transfected only with p53, 300 μM): sensitive to dicoumarol induced p53 degradation
- levels of Mdm-2 and LT ([9]; transfected p53 null HCT116, 300 μM): not affected
- level of I-kappa-B ([2]; 32° C., 6 hrs, 100 micromolar): did not affect
- p53 level ([2]; 32° C., 16 hrs, 75 or 100 micromolar dicoumarol): reduced
- degradation of I-kappa-B or beta-tubulin ([2]; 37° C., 6 hrs, 100 micromolar): not of I-kappa-B or beta-tubulin
- degradation of mutant p53 ([2]; 37° C., 6 hrs, 100 micromolar): induce degradation of p53

Molecule: COC1=C2C[C@@H](C)C[C@H](OC)[C@H](O)[C@@H](C)/C=C(\C)[C@H](OC(N)=O)[C@@H](OC)/C=C\C=C(/C)C(=O)NC(=CC1=O)C2=O [geldanamycin]
- apoptotic cells [10]: 5±2%
- viability at 0.1 µM [7, 12]: 90 ± 4%

Molecule: CC(=O)N[C@@H](CSC(=O)[C@]1([C@@H](O)C(C)C)NC(=O)[C@H](C)[C@@H]1O)C(=O)O [lactacystin]
- block of dicoumarol-induced p53 elimination [1]: completely blocked

Molecule: C[C@@H]1C[C@H]2O[C@@H]2/C=C\C=C\C(=O)Cc2c(Cl)c(O)cc(O)c2C(=O)O1 [radicicol]
- wild-type p53 accumulation [3]: only a weak inhibition
- inhibition of p53 accumulation relative to dicoumarol ([4]; 5 μM radicicol versus 100 μM dicoumarol): stronger effect
- accumulation of p53 following γ-irradiation or doxorubicin treatment [4]: inhibited
- apoptotic cells [10]: 5±2%
- suppression of dexamethasone induced apoptosis ([10]; thymocytes): strongly suppressed
- suppression of wild-type p53 induced apoptosis ([7]; M1-t-p53 cells cultured at 32° C., 23 h): strongly suppressed
- viability at 0.1 µM [7, 12]: 90 ± 4%
- p53 level ([2]; 32° C., 2 h, 1 μM, also after 4 h preincubation at 32° C.): decrease in p53 level
- level of p53 in its wild-type form ([2]; 32° C., 6 h incubation): strong decrease in the level of p53
- level of p53 in its mutant form ([2]; 37° C., 6 h incubation): strong decrease in the level of p53
- level of Bcl-2 ([2]; 6 h incubation, same conditions): no change

B1: IL6: interleukin 6, anti-apoptotic agent in M1-t-p53 cells (protein, UniProt P08505 25-211, looked up)
Interleukin-6: FPTSQVRRGDFTEDTTPNRPVYTTSQVGGLITHVLWEIVEMRKELCNGNSDCMNNDDALAENNLKLPEIQRNDGCYQTGYNQEICLLKISSGLLEYHSYLEYMKNNLKDNKKDKARVLQRDTETLIHIFNQEVKDLHKIVLPTPISNALLTDKLESQKEWLRTKTIQFILKSLEEFLKVTLRSTRQT
- p53 level [2, 11]: did not cause a reduction in p53 level
